Data as given in BindingDB's records for patent US10196374 (Astrazeneca, 2019).

Target: T1, Glucocorticoid receptor (Homo sapiens, UniProt P04150)
T1 sequence (P04150 whole entry): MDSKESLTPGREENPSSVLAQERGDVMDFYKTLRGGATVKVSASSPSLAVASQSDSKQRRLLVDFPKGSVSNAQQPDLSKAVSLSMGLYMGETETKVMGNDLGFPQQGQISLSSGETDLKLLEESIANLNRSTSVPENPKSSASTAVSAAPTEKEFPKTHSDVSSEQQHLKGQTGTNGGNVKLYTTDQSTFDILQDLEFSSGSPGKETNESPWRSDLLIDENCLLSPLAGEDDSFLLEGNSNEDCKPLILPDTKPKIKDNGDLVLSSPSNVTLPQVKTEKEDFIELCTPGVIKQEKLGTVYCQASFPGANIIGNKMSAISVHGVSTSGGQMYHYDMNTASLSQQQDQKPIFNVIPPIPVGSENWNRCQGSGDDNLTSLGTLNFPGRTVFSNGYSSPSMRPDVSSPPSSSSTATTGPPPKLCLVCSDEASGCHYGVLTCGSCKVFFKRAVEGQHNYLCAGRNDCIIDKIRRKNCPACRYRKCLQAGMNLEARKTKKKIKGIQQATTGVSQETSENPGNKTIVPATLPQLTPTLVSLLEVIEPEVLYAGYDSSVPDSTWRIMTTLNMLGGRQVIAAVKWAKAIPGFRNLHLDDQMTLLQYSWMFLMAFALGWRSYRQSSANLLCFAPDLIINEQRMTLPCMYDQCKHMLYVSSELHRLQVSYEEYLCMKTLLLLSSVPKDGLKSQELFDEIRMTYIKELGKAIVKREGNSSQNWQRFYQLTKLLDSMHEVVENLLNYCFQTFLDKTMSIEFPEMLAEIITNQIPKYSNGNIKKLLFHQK
Assay: GRE Antagonist Assay
Excerpt: The generated cell line allows for identification of compounds showing antagonist activity at the human glucocorticoid receptor (GR) via reduction of LacZ gene expression. Dexamethasone-activated GR binds to the Glucocorticoid Response Element (GRE) in the promoter of the LacZ gene and transcription is initiated.

IC50: 158 nM
Compound: CC(C)[C@H](NC(=O)C(C)(F)F)[C@H](Oc1ccc2c(cnn2-c2ccc(=O)n(C)c2)c1)c1ccccc1 [US10196374, Example 1]
